Data published in US5250542A, “Peripherally selective piperidine carboxylate opioid antagonists” (Eli Lilly and Company, priority 1992, dated 1993).
Counter-ions that a name gives are not always drawn. Like-named read-outs stand apart in the source and are kept apart here.

Experiments:
mu receptor = target: T1, mu receptor (Rattus norvegicus, UniProt P33535); test: opioid receptor binding assay, [3H] NAL (tritiated naloxone), mu receptor; design: species or system rat (Male Sprague Dawley), brain minus cerebellum
T1 construct: rat whole brain minus cerebellum for mu was homogenized; from tissue; host or cells: brain of male Sprague Dawley rats, whole brain minus cerebellum, homogenate fraction
Method in brief: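 Displacement of [3H]naloxone was measured on rat whole brain minus cerebellum membranes, preincubated 20 min and incubated 20 min at 37° C, with filtration separating bound ligand. Ki was derived from IC50 and ligand KD. Percent displacement was also recorded at 10 nM and 100 nM test compound.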

[1] = target: T2, peripheral opioid receptors (Mus musculus, UniProt P42866); test: precipitated diarrhea in morphine-maintained mice (peripheral opioid activity) and comparison with the writhing test; type: in vivo; settings: for Ratio (AD50 mouse writhing test / ED50 mouse diarrhea test): higher ratio = greater relative antagonism of peripheral opioid receptors; for ED50: mouse, 0.5 h, morphine-maintained mice, antagonist subcutaneous or oral, 30 min observation
T2 construct: Mice maintained (6 mice/cage) on 0.01M saccharin water with 1 g/1 morphine sulfate; from tissue; host or cells: living morphine-maintained mice (in vivo test; endogenous receptor)
Method in brief: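 Morphine-dependent mice (1 g/l morphine sulfate in drinking water ≥10 days, withdrawn 45 min before dosing) received antagonist subcutaneously or orally, 5 mice/dose. Diarrhea (and jumping) were scored over 30 min and doses lowered to find the diarrhea threshold. Peripheral selectivity was taken as writhing AD50 divided by diarrhea ED50.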

opioid receptor = target: T3, opioid receptor (Mus musculus, UniProt P42866); test: mouse writhing analgesis test: block of morphine-induced analgesia; type: in vivo, CF-1 male mice; design: unit not given here; settings: dose of antagonist that reduced the inhibition of writhing produced by 1.25 mg/kg morphine sulfate to 50%; subcutaneous, 20 min before acetic acid
T3 construct: Five CF-1 male mice (Charles River, Portage, Mich.); from tissue; host or cells: living CF-1 male mice (in vivo test; endogenous receptor)
Method in brief: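 Male CF-1 mice (~20 g, fasted overnight, n=5) dosed subcutaneously 20 min before i.p. 0.6% acetic acid; writhes counted for 10 min starting 5 min post-injection. Antagonism measured as blockade of morphine-induced inhibition of writhing, percent versus vehicle controls; ED50 defined as 50% writhing inhibition.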

[2] = 20 min, read-out: % displacement at 10 nM, 10 nM test compound, [3H] naloxone 0.5 nM
[3] = 20 min, read-out: % displacement at 100 nM
[4] = 20 min, read-out: % displacement at 10 nM
[5] = 20 min, read-out: % displacement at 100 nM, 100 nM test compound, [3H] naloxone 0.5 nM

T1 sequence (P33535 whole entry): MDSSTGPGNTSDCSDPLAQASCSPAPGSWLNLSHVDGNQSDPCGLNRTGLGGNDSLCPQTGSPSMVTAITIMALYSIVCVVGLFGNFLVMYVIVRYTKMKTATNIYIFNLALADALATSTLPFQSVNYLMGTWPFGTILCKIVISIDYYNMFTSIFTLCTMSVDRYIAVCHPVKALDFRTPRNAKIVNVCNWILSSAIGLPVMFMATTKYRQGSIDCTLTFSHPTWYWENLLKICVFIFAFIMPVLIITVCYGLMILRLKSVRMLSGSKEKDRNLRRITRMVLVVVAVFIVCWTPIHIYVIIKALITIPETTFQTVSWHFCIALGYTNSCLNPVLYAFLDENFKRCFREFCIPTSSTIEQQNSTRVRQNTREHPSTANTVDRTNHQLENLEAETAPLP
T3 sequence (P42866 whole entry): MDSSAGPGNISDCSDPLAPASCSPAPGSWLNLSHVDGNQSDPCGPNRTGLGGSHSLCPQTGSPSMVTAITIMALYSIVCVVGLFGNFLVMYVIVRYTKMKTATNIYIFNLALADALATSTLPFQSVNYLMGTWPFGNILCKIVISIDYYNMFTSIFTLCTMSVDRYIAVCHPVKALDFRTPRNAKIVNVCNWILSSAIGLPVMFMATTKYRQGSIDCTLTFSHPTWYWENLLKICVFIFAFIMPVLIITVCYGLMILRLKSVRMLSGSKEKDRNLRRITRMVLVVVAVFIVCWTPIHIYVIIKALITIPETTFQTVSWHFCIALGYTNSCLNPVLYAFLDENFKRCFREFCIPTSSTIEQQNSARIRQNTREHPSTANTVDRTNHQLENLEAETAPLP
T2 sequence (P42866 whole entry): as above

| SMILES | inhibition at 0.01 µM (mu receptor; [2]) [%] | inhibition at 0.1 µM (mu receptor; [3]) [%] | Ki (mu receptor; [3H] naloxone 0.5 nM, pH 7.4, 37° C., 20 min) [nM] | Ratio (AD50 mouse writhing test / ED50 mouse diarrhea test) [1] | ED50 [1] [mg/kg] | AD50 (opioid receptor) | inhibition at 0.01 µM (mu receptor; [4]) [%] | Ki (mu receptor) [nM] | inhibition at 0.1 µM (mu receptor; [5]) [%] |
| --- | --- | --- | --- | --- | --- | --- | --- | --- | --- |
| CC(C)COC(=O)CNC(=O)C(Cc1ccccc1)CN1CC[C@@](C)(c2cccc(O)c2)[C@@H](C)C1 (some centres unmarked) [Example 54, 2-[2-(phenylmethyl)-1-oxo-3-4-(3-hydroxyphenyl)-3,4-dimethyl-1-piperidinyl]propyl]amino]-ethanoic acid 2-methylpropyl ester monohydrochloride] | 78 | 98 | 2.27 | 1150 | 0.02 | 23 |  |  |  |
| C[C@H]1CN(CC(Cc2ccccc2)C(=O)NCC(=O)OCc2ccccc2)CC[C@@]1(C)c1cccc(O)c1 (some centres unmarked) [Example 55, 2-[[2-(phenylmethyl)-1-oxo-3-[4-(3-hydroxyphenyl)3,4-dimethyl-1-piperidinyl]propyl]amino]-ethanoic acid phenylmethyl ester hydrochloride] |  | 97 |  | 63 | 0.12 | 7.5 | 83 |  |  |
| C[C@H]1CN(CC(Cc2ccccc2)C(=O)NCCC(=O)OCc2ccccc2)CC[C@@]1(C)c1cccc(O)c1 (some centres unmarked) [Example 56, hydrochloride] | 97 | 98 |  | 667 | 0.06 | 40 |  | 0.49 |  |
| C[C@H]1CN(CC(Cc2ccccc2)C(=O)NCCC(=O)O)CC[C@@]1(C)c1cccc(O)c1 (some centres unmarked) [Example 57, monohydrate] |  | 98 |  | > 400 | 0.1 | > 40 | 92 | 0.5 |  |
| CNC(=O)CCNC(=O)C(Cc1ccccc1)CN1CC[C@@](C)(c2cccc(O)c2)[C@@H](C)C1 (some centres unmarked) [Example 59, N-(methyl)-3-[[3-[4-(3-hydroxyphenyl)-3,4-dimethyl-1-piperidinyl]-2-(phenylmethyl)-1-oxopropyl]amino]propanamide monohydrochloride] | 88 |  |  | 11 | 0.54 | 5.9 |  | 4.64 | 100 |
| CCNC(=O)CCNC(=O)C(Cc1ccccc1)CN1CC[C@@](C)(c2cccc(O)c2)[C@@H](C)C1 (some centres unmarked) [Example 60, N-(ethyl)-3-[[3-[4-(3-hydroxyphenyl)-3,4-dimethyl-1-piperidinyl]-2-(phenylmethyl)-1-oxopropyl]amino]propanamide monohydrochloride] | 100 |  |  | 112 | 0.1 | 11.2 |  | 1.89 | 100 |
| CNC(=O)CCCNC(=O)C(Cc1ccccc1)CN1CC[C@@](C)(c2cccc(O)c2)[C@@H](C)C1 (some centres unmarked) [Example 62, N-(methyl)-4-[[3-]4-(3-hydroxyphenyl)-3,4-dimethyl-1-piperidinyl]-2-(phenylmethyl)-1-oxopropyl]amino]butanamide monohydrochloride monohydrate] | 89 | 98 |  | 122 | 0.15 | 18.3 |  | 1.18 |  |
| C[C@H]1CN(CC(Cc2ccccc2)C(=O)NCCCC(N)=O)CC[C@@]1(C)c1cccc(O)c1 (some centres unmarked) [Example 63, 4-[[3-[4-(3-hydroxyphenyl)-3,4-dimethyl-1-piperidinyl]-2-(phenylmethyl)-1-oxopropyl]-amino]butanamide monohydrochloride] | 89 |  |  | 90 | 0.29 | 26 |  | 2 | 100 |
